# Laboratory results taken from PubChem BioAssay (NCI).
#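 Exposure lasted 48 hours, with cells grown in 96-well plates and compounds tested at five concentrations. TGI is the concentration that stops growth completely.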
# What was measured:
# Assay in all cases: NCI anticancer screen, dose series, 48 h
# [1] = test system: OVCAR-8 ovarian
# [2] = test system: SF-539 CNS
# [3] = test system: LOX IMVI melanoma
# [4] = test system: 786-0 renal
# [5] = test system: COLO 205 colon
# [6] = test system: MDA-MB-435
# [7] = test system: HOP-92 NSCLC
# [8] = test system: NCI/ADR-RES ovarian
# [9] = test system: HCT-15 colon
# [10] = test system: HL-60(TB) leukemia
# [11] = test system: NCI-H23 lung
# [12] = test system: SNB-75 CNS
# [13] = test system: UACC-62 melanoma
# [14] = test system: SN12C renal
# [15] = test system: MCF7 breast
# [16] = test system: A498 renal
# [17] = test system: OVCAR-3 ovarian
# [18] = test system: SK-MEL-2 melanoma
# [19] = test system: NCI-H522 lung
# [20] = test system: M14 melanoma
# [21] = test system: PC-3 prostate
# [22] = test system: OVCAR-5 ovarian
# [23] = test system: BT-549 breast
# [24] = test system: CAKI-1 renal
# [25] = test system: HCT-116 colon
# [26] = test system: SK-MEL-5 melanoma
# [27] = test system: HOP-62 NSCLC
# [28] = test system: A549 NSCLC
# [29] = test system: MOLT-4 leukemia
# [30] = test system: RPMI-8226 leukemia
# [31] = test system: K-562 leukemia
# [32] = test system: HT29 colon
# [33] = test system: SR leukemia
# [34] = test system: CCRF-CEM leukemia
# [35] = test system: SNB-19 CNS
# [36] = test system: EKVX NSCLC
# [37] = test system: DU-145 prostate
# [38] = test system: SF-295 CNS
# [39] = test system: SF-268 CNS
# [40] = test system: HCC-2998 colon
# [41] = test system: UO-31 renal
# [42] = test system: IGROV1 ovarian
# [43] = test system: ACHN renal
# [44] = test system: UACC-257 melanoma
# [45] = test system: TK-10 renal
# [46] = test system: SK-MEL-28 melanoma
# [47] = test system: RXF 393 renal
# [48] = test system: SW-620 colon
# [49] = test system: OVCAR-4 ovarian
# [50] = test system: SK-OV-3 ovarian
# [51] = test system: KM12 colon
# [52] = test system: HS 578T breast
# [53] = test system: U251 CNS
# [54] = test system: NCI-H226 lung
# [55] = test system: T-47D breast
# [56] = test system: MALME-3M melanoma
# [57] = test system: MDA-MB-231 breast
smiles,measurement,setting,value
c1ccc(-c2ccc(-c3ccc(C4=NCCN4)cc3)o2)cc1,TGI,[1],15.2 µM
same,TGI,[2],4.4 µM
same,TGI,[3],4.01 µM
same,TGI,[4],3.1 µM
same,TGI,[5],3.31 µM
same,TGI,[6],3.84 µM
same,TGI,[7],5.03 µM
same,TGI,[8],19.7 µM
same,TGI,[9],4.19 µM
same,TGI,[10],3.74 µM
same,TGI,[11],17.5 µM
same,TGI,[12],5.17 µM
same,TGI,[13],3.2 µM
same,TGI,[14],11.4 µM
same,TGI,[15],3.68 µM
same,TGI,[16],3.65 µM
same,TGI,[17],18 µM
same,TGI,[18],3.51 µM
same,TGI,[19],4.21 µM
same,TGI,[20],3.1 µM
same,TGI,[21],5.54 µM
same,TGI,[22],7.9 µM
same,TGI,[23],17.3 µM
same,TGI,[24],5.36 µM
same,TGI,[25],3.42 µM
same,TGI,[26],3.92 µM
same,TGI,[27],12.3 µM
same,TGI,[28],7.8 µM
same,TGI,[29],4.59 µM
same,TGI,[30],2.88 µM
same,TGI,[31],3.44 µM
same,TGI,[32],4.94 µM
same,TGI,[33],7.43 µM
same,TGI,[34],4.46 µM
same,TGI,[35],6.3 µM
same,TGI,[36],10.8 µM
same,TGI,[37],10.3 µM
same,TGI,[38],3.82 µM
same,TGI,[39],8.4 µM
same,TGI,[40],2.81 µM
same,TGI,[41],3.14 µM
same,TGI,[42],7.52 µM
same,TGI,[43],7.97 µM
same,TGI,[44],4.89 µM
same,TGI,[45],11.4 µM
same,TGI,[46],3.75 µM
same,TGI,[47],6.53 µM
same,TGI,[48],4.42 µM
same,TGI,[49],15 µM
same,TGI,[50],11.5 µM
same,TGI,[51],4.43 µM
same,TGI,[52],2.8 µM
same,TGI,[53],3.93 µM
same,TGI,[54],6.15 µM
same,TGI,[55],7.06 µM
same,TGI,[56],2.17 µM
same,TGI,[57],3.89 µM
